Experimental data reported in ChEMBL document CHEMBL1201862, “PubChem BioAssay data set” (2004).
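Cultured in 96-well plates, cells were exposed to test compound for 48 hours across five concentrations. Abbreviation: GI50, concentration required for 50% inhibition of growth.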 Activity calls are given as the source filed them. Rule as the data show it: active = GI50 up to about 1.1 µM and inactive = higher.

Tests used:
Assay in all cases: NCI-60 cell line screen, 48 h
BT-549 = test system: BT-549
DLD-1 = test system: DLD-1
DMS-114 = test system: DMS-114
DMS-273 = test system: DMS-273
HOP-18 = test system: HOP-18
LXFL 529 = test system: LXFL 529
RXF 631 = test system: RXF 631
SNB-78 = test system: SNB-78
XF498 = test system: XF498

Measured: GI50

O=C(CC1(O)C(=O)Nc2c(Cl)ccc(Cl)c21)c1ccco1 (centres undefined)
inactive: BT-549 36.5 µM | DLD-1 39.7 µM | DMS-114 18 µM | DMS-273 34.6 µM | HOP-18 > 100 µM | LXFL 529 14 µM | RXF 631 26.4 µM | SNB-78 51.8 µM | XF498 11.9 µM

CCCCCCCC(=O)OCC1OC(OC)C(NC(=O)N(CCCl)N=O)C(O)C1O (centres undefined)
inactive: DLD-1 11.9 µM | DMS-114 11.9 µM | DMS-273 2.9 µM | HOP-18 18.5 µM | LXFL 529 16.9 µM | RXF 631 2.48 µM | SNB-78 22.9 µM | XF498 10.2 µM

CCOC(=O)C12CCCC1(O)N(NC(N)=O)C(C)=C2C(=O)OC (centres undefined)
inactive: DLD-1 > 100 µM | DMS-114 > 100 µM | DMS-273 > 100 µM | HOP-18 > 100 µM | LXFL 529 > 100 µM | RXF 631 > 100 µM | SNB-78 > 100 µM | XF498 > 100 µM

CCn1c(C)nc([N+](=O)[O-])c1Sc1ncc[nH]1
inactive: DLD-1 30.5 µM | DMS-114 34.4 µM | DMS-273 57.1 µM | HOP-18 4.8 µM | LXFL 529 26.1 µM | RXF 631 24.7 µM | SNB-78 33.7 µM | XF498 43.2 µM

O=C1[C@@H]2C(c3ccccc3Br)=NO[C@@H]2C(=O)N1c1ccc(Cc2ccc(N3C(=O)[C@H]4C(c5ccccc5Br)=NO[C@H]4C3=O)cc2)cc1
inactive: DLD-1 > 100 µM | DMS-114 > 100 µM | DMS-273 > 100 µM | HOP-18 45.6 µM | LXFL 529 > 100 µM | RXF 631 > 100 µM | SNB-78 > 100 µM | XF498 67.9 µM

C[N+](C)(C)CC(=O)NC(=O)N/N=C\C(CC#N)CN(Cc1ccccc1)Cc1ccccc1 (centres undefined)
inactive: DLD-1 > 100 µM | DMS-114 > 100 µM | DMS-273 > 100 µM | HOP-18 59.6 µM | LXFL 529 > 100 µM | RXF 631 > 100 µM | SNB-78 > 100 µM | XF498 > 100 µM
